The values below come from patent EP4711369A1, “1H-[1,2,3]TRIAZOLO[4,5-H]QUINAZOLINE COMPOUNDS AS PROTEIN KINASE INHIBITORS” (Chengdu Cynogen Bio-Pharmaceutical Technology Co., Ltd., priority 2023, dated 2024).

For assay [1], the system named is Human ovarian cancer OVCAR3 cells. The experiment in a line: Assay of cell proliferation (CellTiter-Glo). It counts as cell-based. To be noted: Homo sapiens, OVCAR-3, 144 h, 6 days, read-out: OVCAR3 IC50 of cell proliferation inhibitory activity. On the procedure: (§1) Human ovarian cancer OVCAR3 cells were inoculated at 2000 cells/well in a 96-well plate and cultured in RPMI 1640 medium containing 20% FBS at 37 °C and 5% CO2 overnight in an incubator. The next day, the compounds were subjected to a three-fold gradient dilution in DMSO from a peak concentration of 2 mM to give nine concentrations. Then, the compounds were diluted 3:200 in growth medium, and finally diluted 1:3 in the cell culture supernatant to give a culture supernatant containing 0.5% DMSO, with the compounds treatment concentrations ranging from 10 µM to 0.1 nM. The cells and the compounds were incubated at 37 °C and 5% CO2 for 6 days. Then, cell proliferation assay was performed using the CellTiter-Glo (manufacturer: Promega, Cat. No. G9242), and luminescence signals were read using a multifunctional microplate reader (model: Synergy H1, manufacturer: BiotTek). IC50 values were calculated by fitting of the concentration-response curves with a four-parameter analysis method using GraphPad Prism software.
On the technique in general: ATP-based viability assays read luminescence as a measure of living cells.

Assay [2] concerns human gastric cancer MKN1 cells. The assay is described as follows: Assay of cell proliferation (CellTiter-Glo). To be noted: Homo sapiens, MKN-1, 144 h; MNK1, 6 days; read-out: MKN1 IC50 of cell proliferation inhibitory activity. It is filed as cell-based. On the procedure: as §1
(§2) The cell proliferation assays of human colon cancer HCT-116 cells, human breast cancer MCF-7 cells, human breast cancer HCC1806 cells, human acute myeloid leukemia MV-4-11 cells, and human gastric cancer MKN1 cells were performed according to the same method, with different inoculation densities set according to different cell growth characteristics.

For assay [3], the system named is human breast cancer HCC1806 cells. The experiment in a line: Assay of cell proliferation (CellTiter-Glo). To be noted: Homo sapiens, 144 h, 6 days, read-out: HCC1806 IC50 of cell proliferation inhibitory activity. It counts as cell-based. How it is done:
as §1, §2

Assay [4] deals with human acute myeloid leukemia MV-4-11 cells. The assay is described as follows: Assay of cell proliferation (CellTiter-Glo). It is filed as cell-based. The settings on record: MV4-11, 144 h, 6 days, read-out: MV-4-11 IC50 of cell proliferation inhibitory activity. On the procedure:
as §1, §2

Another assay has as its target CDK9/cyclin T1 (Homo sapiens, UniProt P50750). The experiment in a line: Assay of kinase activity (ADP-Glo). It is filed as biochemical. The settings on record: kinase inhibitory activity. On the procedure:
(§3) CDK/cyclin catalyzes the phosphorylation of a substrate, which concomitantly consumes ATP and produces ADP. The inhibition rate (%) in the presence of a small molecule inhibitor was assessed by measuring the amount of ADP generated in the reaction. The assay compounds were thoroughly mixed by vortexing and then diluted in DMSO to 100× the assay concentration. 40 nL of a compound was transferred to a 384-well assay plate using a nanoliter pipetting system (ECHO® 655 SYSTEM). A 2× kinase solution was prepared using a 1× kinase reaction buffer (50 mM Hepes, 10 mM MgCl2, 0.01% Brij35, 2 mM DTT). 2 µL of the kinase solution was transferred to the 384-well assay plate, and the plate was centrifuged at 1000 rpm for 60 seconds in a microplate centrifuge. The plate was incubated at 25 °C in a biochemical incubator for 10 minutes. A 2x mixture of substrate and ATP was prepared in the kinase reaction buffer. Then, 2 µL of the mixture of substrate and ATP was added to the 384-well assay plate. The plate was centrifuged at 1000 rpm for 60 seconds in a microplate centrifuge, and incubated at 25 °C in a biochemical incubator for 60 minutes. 4 µL of ADP-Glo Reagent (Cat. No. V9103, manufacturer: Promega) incubated at 25 °C in a biochemical incubator was added to each well of the 384-well assay plate. The plate was centrifuged at 1000 rpm for 60 seconds in a microplate centrifuge, and incubated at 25 °C in a biochemical incubator for 40 minutes. 8 µL of Detection Reagent incubated at 25 °C in a biochemical incubator was added to each well of the 384-well assay plate. The plate was centrifuged at 1000 rpm for 60 seconds in a microplate centrifuge, and incubated at 25 °C in a biochemical incubator for 40 minutes. Finally, luminescence signals were read using a multifunctional microplate reader (model: PHERAstar FSX, manufacturer: BMG). IC50 values were calculated by nonlinear fitting of the concentration-response curves using GraphPad Prism software.
(ADP-Glo turns the ADP formed in a reaction into a luminescent signal.)

In another assay the target is CDK6/cyclin D3 (Homo sapiens, UniProt Q00534). The experiment in a line: Assay of kinase activity (ADP-Glo). It counts as biochemical. The settings on record: kinase inhibitory activity. On the procedure:
as §3

Another assay concerns the target CDK2/cyclin E (Homo sapiens, UniProt P24941). The assay is described as follows: Assay of kinase activity (ADP-Glo). To be noted: kinase inhibitory activity, read-out: CDK2/E1 IC50. It counts as biochemical. How it is done: as §3, with “40 nL of a compound was transferred to a 384-well assay plate using a nanoliter pipetting system (ECHO® 655 SYSTEM).” left out
In a further assay the target is CDK4/cyclin D1 (Homo sapiens, UniProt P11802). The assay is described as follows: Assay of kinase activity (ADP-Glo). It is filed as biochemical. The settings on record: kinase inhibitory activity. On the procedure:
as §3, with “40 nL of a compound was transferred to a 384-well assay plate using a nanoliter pipetting system (ECHO® 655 SYSTEM).” left out

SMILES strings stand for the structures.

Sequence of CDK6/cyclin D3 (Q00534 whole entry, species assumed): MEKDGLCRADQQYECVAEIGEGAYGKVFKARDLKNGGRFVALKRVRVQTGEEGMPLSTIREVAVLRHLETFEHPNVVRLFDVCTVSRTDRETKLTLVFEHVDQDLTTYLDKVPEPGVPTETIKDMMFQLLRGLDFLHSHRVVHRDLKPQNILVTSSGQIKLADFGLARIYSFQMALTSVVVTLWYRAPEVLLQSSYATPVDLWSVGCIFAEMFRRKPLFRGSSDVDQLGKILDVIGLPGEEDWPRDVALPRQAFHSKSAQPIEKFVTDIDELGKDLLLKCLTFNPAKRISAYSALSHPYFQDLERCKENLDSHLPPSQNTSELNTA
Sequence of CDK6/cyclin D3 (P30281 whole entry partner, species assumed): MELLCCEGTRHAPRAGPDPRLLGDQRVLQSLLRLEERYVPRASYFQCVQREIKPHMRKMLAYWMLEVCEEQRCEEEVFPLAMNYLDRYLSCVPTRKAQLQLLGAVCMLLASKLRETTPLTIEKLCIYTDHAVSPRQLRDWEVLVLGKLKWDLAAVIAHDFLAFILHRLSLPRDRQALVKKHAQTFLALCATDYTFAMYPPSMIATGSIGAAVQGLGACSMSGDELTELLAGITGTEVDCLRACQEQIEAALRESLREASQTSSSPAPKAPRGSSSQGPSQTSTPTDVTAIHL
Sequence of CDK4/cyclin D1 (P11802 whole entry, species assumed): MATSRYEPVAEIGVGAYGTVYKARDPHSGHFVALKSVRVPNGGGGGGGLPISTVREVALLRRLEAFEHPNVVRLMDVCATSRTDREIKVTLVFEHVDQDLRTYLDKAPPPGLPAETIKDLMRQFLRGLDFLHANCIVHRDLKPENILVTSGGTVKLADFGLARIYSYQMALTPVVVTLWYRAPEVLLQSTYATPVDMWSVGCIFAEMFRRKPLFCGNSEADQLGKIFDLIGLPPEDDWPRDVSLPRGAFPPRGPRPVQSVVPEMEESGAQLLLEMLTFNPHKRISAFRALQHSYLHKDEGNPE
Sequence of CDK4/cyclin D1 (P24385 whole entry partner, species assumed): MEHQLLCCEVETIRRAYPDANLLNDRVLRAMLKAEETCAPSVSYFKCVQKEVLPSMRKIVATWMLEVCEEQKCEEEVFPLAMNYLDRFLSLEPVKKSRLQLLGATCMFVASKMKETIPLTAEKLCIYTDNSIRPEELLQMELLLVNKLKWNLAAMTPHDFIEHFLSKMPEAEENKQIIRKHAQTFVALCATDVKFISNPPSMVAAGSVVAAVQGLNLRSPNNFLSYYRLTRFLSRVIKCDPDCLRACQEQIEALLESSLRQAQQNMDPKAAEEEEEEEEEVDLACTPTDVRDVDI
Sequence of CDK9/cyclin T1 (P50750 whole entry, species assumed): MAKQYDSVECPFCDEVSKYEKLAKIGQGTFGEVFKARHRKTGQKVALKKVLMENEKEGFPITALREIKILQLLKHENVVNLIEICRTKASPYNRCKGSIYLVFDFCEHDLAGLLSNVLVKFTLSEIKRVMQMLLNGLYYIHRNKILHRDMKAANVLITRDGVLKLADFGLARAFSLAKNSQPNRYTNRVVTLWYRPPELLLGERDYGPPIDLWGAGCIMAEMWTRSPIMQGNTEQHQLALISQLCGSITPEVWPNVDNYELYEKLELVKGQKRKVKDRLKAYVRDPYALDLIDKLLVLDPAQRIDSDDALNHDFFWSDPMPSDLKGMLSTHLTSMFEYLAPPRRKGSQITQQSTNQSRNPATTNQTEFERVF
Sequence of CDK9/cyclin T1 (O60563 whole entry partner, species assumed): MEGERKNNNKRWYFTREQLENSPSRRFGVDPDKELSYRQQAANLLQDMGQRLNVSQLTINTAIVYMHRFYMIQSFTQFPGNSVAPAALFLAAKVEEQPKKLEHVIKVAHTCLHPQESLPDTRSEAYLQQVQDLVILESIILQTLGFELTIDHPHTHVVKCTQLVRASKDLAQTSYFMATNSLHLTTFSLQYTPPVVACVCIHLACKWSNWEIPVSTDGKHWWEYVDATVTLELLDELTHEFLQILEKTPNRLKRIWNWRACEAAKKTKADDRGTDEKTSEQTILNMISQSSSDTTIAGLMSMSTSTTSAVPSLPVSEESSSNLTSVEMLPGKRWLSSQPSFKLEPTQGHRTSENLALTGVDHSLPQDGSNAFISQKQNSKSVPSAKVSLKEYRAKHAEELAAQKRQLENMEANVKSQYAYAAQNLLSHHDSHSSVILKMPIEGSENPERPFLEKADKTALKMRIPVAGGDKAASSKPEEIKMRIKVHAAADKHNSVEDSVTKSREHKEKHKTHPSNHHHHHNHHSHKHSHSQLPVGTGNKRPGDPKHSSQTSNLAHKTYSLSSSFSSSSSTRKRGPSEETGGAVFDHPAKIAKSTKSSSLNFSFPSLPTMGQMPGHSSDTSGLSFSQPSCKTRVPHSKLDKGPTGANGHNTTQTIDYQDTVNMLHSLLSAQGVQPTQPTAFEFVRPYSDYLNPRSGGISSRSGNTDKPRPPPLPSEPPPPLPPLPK

`CC(C)n1nnc2ccc3cnc(Nc4ccc(C(=O)N5CC[C@H](F)C5)cc4)nc3c21` [Example I-1, (S)-(3-Fluoropyrrolidin-1-yl)(4-((1-isopropyl-1H-[1,2,3]triazolo[4,5-H]quinazolin-8-yl)amino)phenyl)methanone]: the IC50 was determined as 119 nM in assay [1]; 45 nM in assay [2]; 223 nM in assay [3]; 17 nM in assay [4]; 9 nM against CDK9/cyclin T1; 13 nM against CDK6/cyclin D3. The IC50 at CDK2/cyclin E came out at 0.2 nM; on CDK4/cyclin D1 it was 2 nM.

In the case of `CC(C)n1nnc2ccc3cnc(Nc4ccc(C(=O)N5CC[C@@H](F)C5)cc4)nc3c21` [Example I-2, (R)-(3-Fluoropyrrolidin-1-yl)(4-((1-isopropyl-1H-[1,2,3]triazolo[4,5-H]quinazolin-8-yl)amino)phenyl)methanone], the IC50 was 94 nM in assay [1]; 46 nM in assay [2]; 175 nM in assay [3]; 15 nM in assay [4]; 8 nM against CDK9/cyclin T1; 12 nM against CDK6/cyclin D3. The IC50 on CDK2/cyclin E came out at 0.3 nM; against CDK4/cyclin D1, 2 nM.

Regarding `CC(C)n1nnc2ccc3cnc(Nc4ccc(C(=O)N5CC[C@@H](N)C5)cc4)nc3c21` [Example I-5, (R)-(3-Aminopyrrolidin-1-yl)(4-((1-isopropyl-1H-[1,2,3]triazolo[4,5-H]quinazolin-8-yl)amino)phenyl)metha none], the IC50 was found to be 12 nM in assay [1]; 11 nM in assay [2]; 53 nM in assay [3]; 3 nM in assay [4]; 7 nM at CDK9/cyclin T1; 10 nM against CDK6/cyclin D3. In addition, the IC50 on CDK2/cyclin E came out at 0.07 nM; against CDK4/cyclin D1 it was 0.8 nM.

Regarding `CN[C@H]1CCN(C(=O)c2ccc(Nc3ncc4ccc5nnn(C(C)C)c5c4n3)cc2)C1` [Example I-6, (S)-(4-((1-Isopropyl-1H-[1,2,3]triazolo[4,5-H]quinazolin-8-yl)amino)phenyl)(3-(methylamino)pyrrolidin-1-yl)methanone], the IC50 in assay [1] turned out to be 26 nM; in assay [2], 7 nM; in assay [3], 73 nM; in assay [4], 2 nM; against CDK9/cyclin T1, 2 nM; on CDK6/cyclin D3 it was 3 nM. Moreover, the IC50 at CDK2/cyclin E is 0.06 nM; against CDK4/cyclin D1 it was 0.5 nM.

As for `CC(C)N[C@H]1CCN(C(=O)c2ccc(Nc3ncc4ccc5nnn(C(C)C)c5c4n3)cc2)C1` [Example I-8, (S)-(4-((1-Isopropyl-1H-[1,2,3]triazolo[4,5-H]quinazolin-8-yl)amino)phenyl)(3-(isopropylamino)pyrrolidin-1-yl)methanone], the IC50 in assay [1] stood at 7 nM; in assay [2], 4 nM; in assay [3] it was 16 nM; in assay [4], 2 nM; against CDK9/cyclin T1, 3 nM; at CDK6/cyclin D3, 19 nM. For the same molecule, the IC50 came out at 0.1 nM on CDK2/cyclin E and 0.8 nM at CDK4/cyclin D1.

Take `CC(C)N[C@@H]1CCN(C(=O)c2ccc(Nc3ncc4ccc5nnn(C(C)C)c5c4n3)cc2)C1` [Example I-9, (R)-(4-((1-Isopropyl-1H-[1,2,3]triazolo[4,5-H]quinazolin-8-yl)amino)phenyl)(3-(isopropylamino)pyrrolidin-1-yl)methanone]: the IC50 in assay [1] stood at 26 nM; in assay [2], 11 nM; in assay [3], 53 nM; in assay [4], 3 nM; against CDK9/cyclin T1, 2 nM; at CDK6/cyclin D3 it was 15 nM. In addition, the figures for the IC50 on CDK2/cyclin E and against CDK4/cyclin D1 were 0.2 nM and 1 nM, respectively.

Take `CC(C)n1nnc2ccc3cnc(Nc4ccc(C(=O)N5CC[C@@H](O)[C@H](N)C5)cc4)nc3c21` [Example I-13, ((3R,4R)-3-Amino-4-hydroxypiperidin-1-yl)(4-((1-isopropyl-1H-[1,2,3]triazolo[4,5-H]quinazolin-8-yl)amino)phenyl)metha none]: the IC50 in assay [1] was determined as 156 nM; in assay [2], 252 nM; in assay [3], 330 nM; in assay [4] it was 4 nM; against CDK6/cyclin D3, 29 nM; at CDK2/cyclin E, 0.8 nM. In addition, the IC50 at CDK4/cyclin D1 came to 4 nM.

For `CC(C)n1nnc2ccc3cnc(Nc4ccc(C(=O)N5CC[C@H](N)[C@H](O)C5)cc4)nc3c21` [Example I-14, ((3R,4S)-4-Amino-3-hydroxypiperidin-1-yl)(4-((1-isopropyl-1H-[1,2,3]triazolo[4,5-H]quinazolin-8-yl)amino)phenyl)metha none], the IC50 in assay [1] is 102 nM; in assay [2] it was 66 nM; in assay [3], 424 nM; in assay [4] it was 11 nM; at CDK6/cyclin D3 it was 39 nM; on CDK2/cyclin E, 2 nM. For the same molecule, the IC50 against CDK4/cyclin D1 turned out to be 2 nM.

For `CC(C)n1nnc2ccc3cnc(Nc4ccc(C(=O)N5CCN(C)[C@H](C)C5)cc4)nc3c21` [Example I-27, (R)-(3,4-Dimethylpiperazin-1-yl)(4-((1-isopropyl-1H-[1,2,3]triazolo[4,5-H]quinazolin-8-yl)amino)phenyl)metha none], the IC50 stood at 69 nM in assay [1]; 32 nM in assay [2]; 186 nM in assay [3]; 6 nM in assay [4]; 14 nM on CDK6/cyclin D3; 2 nM on CDK2/cyclin E. Further, the IC50 on CDK4/cyclin D1 came out at 5 nM.

For the molecule `CC(C)n1nnc2ccc3cnc(Nc4ccc(C(=O)N5CCN(C)[C@@H](C)C5)cc4)nc3c21` [Example I-28, (S)-(3,4-Dimethylpiperazin-1-yl)(4-((1-isopropyl-1H-[1,2,3]triazolo[4,5-H]quinazolin-8-yl)amino)phenyl)metha none], the IC50 in assay [1] came to 59 nM; in assay [2], 42 nM; in assay [3], 174 nM; in assay [4], 9 nM; on CDK6/cyclin D3, 18 nM; at CDK2/cyclin E it was 2 nM. Moreover, the IC50 on CDK4/cyclin D1 worked out at 2 nM.
